Laboratory results reported in the NIST ThermoML archive (doi:10.1016/j.jct.2006.05.006).

Assay: xn = mol fraction of the nth substance listed
Details: 101 kPa, Liquid

CN1CCCC1=O [N-methylpyrrolidone] + c1ccccc1
Details | mass density [kg/m3]
293.15 K, x2 = 0 | 1032.66
293.15 K, x2 = 0.0434 | 1027.48
293.15 K, x2 = 0.1023 | 1020.3
293.15 K, x2 = 0.1625 | 1012.78
293.15 K, x2 = 0.2237 | 1004.93
293.15 K, x2 = 0.2834 | 997.06
293.15 K, x2 = 0.3457 | 988.6
293.15 K, x2 = 0.4015 | 980.8
293.15 K, x2 = 0.4865 | 968.47
293.15 K, x2 = 0.5421 | 960.08
293.15 K, x2 = 0.6154 | 948.61
293.15 K, x2 = 0.6854 | 937.17
293.15 K, x2 = 0.7549 | 925.31
293.15 K, x2 = 0.8254 | 912.73
293.15 K, x2 = 0.9002 | 898.74
293.15 K, x2 = 0.9772 | 883.6
303.15 K, x2 = 0 | 1023.42
303.15 K, x2 = 0.0444 | 1018.04
303.15 K, x2 = 0.1165 | 1009.11
303.15 K, x2 = 0.1854 | 1000.32
303.15 K, x2 = 0.2539 | 991.32
303.15 K, x2 = 0.3296 | 981.02
303.15 K, x2 = 0.3965 | 971.6
303.15 K, x2 = 0.4653 | 961.58
303.15 K, x2 = 0.5362 | 950.85
303.15 K, x2 = 0.6033 | 940.29
303.15 K, x2 = 0.6798 | 927.73
303.15 K, x2 = 0.7451 | 916.54
303.15 K, x2 = 0.8125 | 904.52
303.15 K, x2 = 0.8847 | 891.05
303.15 K, x2 = 0.9245 | 883.36
303.15 K, x2 = 0.9799 | 872.31
313.15 K, x2 = 0 | 1014.27
313.15 K, x2 = 0.0454 | 1008.7
313.15 K, x2 = 0.1054 | 1001.17
313.15 K, x2 = 0.1765 | 992
313.15 K, x2 = 0.2365 | 984.05
313.15 K, x2 = 0.2965 | 975.88
313.15 K, x2 = 0.3654 | 966.2
313.15 K, x2 = 0.4368 | 955.82
313.15 K, x2 = 0.5012 | 946.12
313.15 K, x2 = 0.5687 | 935.58
313.15 K, x2 = 0.6358 | 924.71
313.15 K, x2 = 0.6954 | 914.69
313.15 K, x2 = 0.7658 | 902.39
313.15 K, x2 = 0.8326 | 890.21
313.15 K, x2 = 0.9036 | 876.72
313.15 K, x2 = 0.9684 | 863.87
323.15 K, x2 = 0 | 1005.62
323.15 K, x2 = 0.0521 | 999.09
323.15 K, x2 = 0.1245 | 989.78
323.15 K, x2 = 0.1987 | 979.96
323.15 K, x2 = 0.2541 | 972.41
323.15 K, x2 = 0.3214 | 962.98
323.15 K, x2 = 0.3854 | 953.74
323.15 K, x2 = 0.4215 | 948.4
323.15 K, x2 = 0.4854 | 938.69
323.15 K, x2 = 0.5411 | 929.98
323.15 K, x2 = 0.6124 | 918.42
323.15 K, x2 = 0.6854 | 906.11
323.15 K, x2 = 0.7214 | 899.84
323.15 K, x2 = 0.7984 | 885.99
323.15 K, x2 = 0.8598 | 874.48
323.15 K, x2 = 0.9249 | 861.81
333.15 K, x2 = 0 | 996.28
333.15 K, x2 = 0.0451 | 990.55
333.15 K, x2 = 0.1025 | 983.11
333.15 K, x2 = 0.1632 | 975.06
333.15 K, x2 = 0.2302 | 965.93
333.15 K, x2 = 0.2987 | 956.32
333.15 K, x2 = 0.3512 | 948.74
333.15 K, x2 = 0.4215 | 938.29
333.15 K, x2 = 0.4865 | 928.31
333.15 K, x2 = 0.5521 | 917.9
333.15 K, x2 = 0.6213 | 906.51
333.15 K, x2 = 0.6895 | 894.85
333.15 K, x2 = 0.7451 | 885.02
333.15 K, x2 = 0.8145 | 872.3
333.15 K, x2 = 0.8865 | 858.55
333.15 K, x2 = 0.9654 | 842.8
343.15 K, x2 = 0 | 987.39
343.15 K, x2 = 0.0414 | 982.03
343.15 K, x2 = 0.1154 | 972.25
343.15 K, x2 = 0.1874 | 962.43
343.15 K, x2 = 0.2564 | 952.76
343.15 K, x2 = 0.3248 | 942.88
343.15 K, x2 = 0.3965 | 932.18
343.15 K, x2 = 0.4685 | 921.08
343.15 K, x2 = 0.5384 | 909.92
343.15 K, x2 = 0.5968 | 900.27
343.15 K, x2 = 0.6622 | 889.13
343.15 K, x2 = 0.7321 | 876.77
343.15 K, x2 = 0.7954 | 865.17
343.15 K, x2 = 0.8541 | 854.04
343.15 K, x2 = 0.9123 | 842.63
343.15 K, x2 = 0.9799 | 828.9

CCc1ccccc1 [ethylbenzene] + CN1CCCC1=O
Details | mass density [kg/m3]
293.15 K, x1 = 0.0854 | 1016.73
293.15 K, x1 = 0.1254 | 1009.4
293.15 K, x1 = 0.1847 | 998.68
293.15 K, x1 = 0.2475 | 987.56
293.15 K, x1 = 0.3021 | 978.07
293.15 K, x1 = 0.3654 | 967.23
293.15 K, x1 = 0.4251 | 957.16
293.15 K, x1 = 0.4985 | 944.94
293.15 K, x1 = 0.5471 | 936.92
293.15 K, x1 = 0.6012 | 928.06
293.15 K, x1 = 0.6621 | 918.17
293.15 K, x1 = 0.7214 | 908.66
293.15 K, x1 = 0.7954 | 897.01
293.15 K, x1 = 0.8451 | 889.37
293.15 K, x1 = 0.9214 | 878.1
293.15 K, x1 = 1 | 867.28
303.15 K, x1 = 0.0458 | 1014.88
303.15 K, x1 = 0.1012 | 1004.66
303.15 K, x1 = 0.1685 | 992.46
303.15 K, x1 = 0.2314 | 981.29
303.15 K, x1 = 0.2958 | 970.09
303.15 K, x1 = 0.3541 | 960.11
303.15 K, x1 = 0.4217 | 948.71
303.15 K, x1 = 0.4851 | 938.16
303.15 K, x1 = 0.5471 | 927.94
303.15 K, x1 = 0.6012 | 919.09
303.15 K, x1 = 0.6874 | 905.16
303.15 K, x1 = 0.7451 | 895.97
303.15 K, x1 = 0.8124 | 885.46
303.15 K, x1 = 0.8954 | 872.96
303.15 K, x1 = 0.9654 | 863.01
303.15 K, x1 = 1 | 858.36
313.15 K, x1 = 0.0547 | 1004.11
313.15 K, x1 = 0.1245 | 991.32
313.15 K, x1 = 0.1874 | 980.01
313.15 K, x1 = 0.2451 | 969.83
313.15 K, x1 = 0.3012 | 960.1
313.15 K, x1 = 0.3621 | 949.71
313.15 K, x1 = 0.4321 | 937.95
313.15 K, x1 = 0.4985 | 926.93
313.15 K, x1 = 0.5621 | 916.47
313.15 K, x1 = 0.6251 | 906.2
313.15 K, x1 = 0.6958 | 894.8
313.15 K, x1 = 0.7589 | 884.77
313.15 K, x1 = 0.8245 | 874.57
313.15 K, x1 = 0.9014 | 863.06
313.15 K, x1 = 0.9789 | 852.18
313.15 K, x1 = 1 | 849.38
323.15 K, x1 = 0.0654 | 993.44
323.15 K, x1 = 0.1123 | 984.81
323.15 K, x1 = 0.1785 | 972.82
323.15 K, x1 = 0.2356 | 962.68
323.15 K, x1 = 0.2959 | 952.18
323.15 K, x1 = 0.3575 | 941.62
323.15 K, x1 = 0.4154 | 931.85
323.15 K, x1 = 0.4825 | 920.66
323.15 K, x1 = 0.5415 | 910.92
323.15 K, x1 = 0.606 | 900.36
323.15 K, x1 = 0.6784 | 888.62
323.15 K, x1 = 0.7451 | 877.94
323.15 K, x1 = 0.8214 | 866
323.15 K, x1 = 0.8954 | 854.87
323.15 K, x1 = 0.9548 | 846.41
323.15 K, x1 = 1 | 840.35
333.15 K, x1 = 0.0687 | 983.52
333.15 K, x1 = 0.1254 | 973.12
333.15 K, x1 = 0.1874 | 961.93
333.15 K, x1 = 0.2454 | 951.67
333.15 K, x1 = 0.3021 | 941.83
333.15 K, x1 = 0.3654 | 931.02
333.15 K, x1 = 0.4251 | 920.99
333.15 K, x1 = 0.4784 | 912.12
333.15 K, x1 = 0.5241 | 904.57
333.15 K, x1 = 0.5864 | 894.36
333.15 K, x1 = 0.6478 | 884.37
333.15 K, x1 = 0.7012 | 875.76
333.15 K, x1 = 0.7898 | 861.71
333.15 K, x1 = 0.8457 | 853.12
333.15 K, x1 = 0.9254 | 841.39
333.15 K, x1 = 1 | 831.25
343.15 K, x1 = 0.0784 | 972.86
343.15 K, x1 = 0.1354 | 962.43
343.15 K, x1 = 0.1985 | 951.09
343.15 K, x1 = 0.2415 | 943.48
343.15 K, x1 = 0.3021 | 932.94
343.15 K, x1 = 0.3654 | 922.12
343.15 K, x1 = 0.4251 | 912.06
343.15 K, x1 = 0.4984 | 899.86
343.15 K, x1 = 0.5641 | 889.03
343.15 K, x1 = 0.6214 | 879.66
343.15 K, x1 = 0.6985 | 867.19
343.15 K, x1 = 0.7515 | 858.72
343.15 K, x1 = 0.8125 | 849.17
343.15 K, x1 = 0.8895 | 837.51
343.15 K, x1 = 0.9784 | 824.96
343.15 K, x1 = 1 | 822.11
353.15 K, x1 = 0.0874 | 962.38
353.15 K, x1 = 0.1421 | 952.35
353.15 K, x1 = 0.2032 | 941.34
353.15 K, x1 = 0.2874 | 926.52
353.15 K, x1 = 0.3451 | 916.58
353.15 K, x1 = 0.4021 | 906.9
353.15 K, x1 = 0.487 | 892.69
353.15 K, x1 = 0.5474 | 882.68
353.15 K, x1 = 0.612 | 872.06
353.15 K, x1 = 0.6874 | 859.79
353.15 K, x1 = 0.7458 | 850.42
353.15 K, x1 = 0.8211 | 838.6
353.15 K, x1 = 0.8954 | 827.4
353.15 K, x1 = 0.9445 | 820.37
353.15 K, x1 = 0.98 | 815.52
353.15 K, x1 = 1 | 812.9
